Results on one compound are retold here after patent US20070160664A1, “Pharmaceutical compositions comprising of proton pump inhibitor and prokinetic agent” (PANACEA BIOTEC LIMITED, priority 2004, published 2007).

Each structure is given as a SMILES string.

This data set in a line: Dissolution of domperidone co-processed with an organic acid (developmental studies). The class given is physicochemical. As to conditions: alkaline pH conditions encountered in the gastro-intestinal tract. An excerpt:
According to a preferred embodiment of the invention, domperidone is co-processed with an organic acid in the ratio of from about 1:0.25 to about 0.25:1, preferably from about 1:0.5 to about 0.5:1, most preferably about 1:1. The co-processing may be aided by dissolving the two ingredients with the help of heat followed by cooling, when the dissolved material separates out. The material separated out may be removed and dried. The co-processed material may be incorporated into dosage forms such as tablets, which may further be combined with enteric coated tablets of proton pump inhibitor and an immediate release tablet of domperidone, in a hard gelatin capsule.

For `O=c1[nH]c2ccccc2n1CCCN1CCC(n2c(=O)[nH]c3cc(Cl)ccc32)CC1` [domperidone], the dissolution result was “improved dissolution”.
